Laboratory results from article PMC7763444, “Bioactive Steroids from the Red Sea Soft Coral Sinularia polydactyla” (Marine Drugs, 2020).

What was measured:
[1] = system: HeLa (human cervical cancer cell line); assay: Cytotoxicity, resazurin assay, 72 h; conditions: read-out: Cytotoxicity (IC50) HeLa
Method: (§1) Initially, the cytotoxic activity of metabolites 3–7, 9–12, 14–20, and 22–26 was evaluated in human cancer and normal cells after 72 h of treatment. Human cervical cancer (HeLa), human breast adenocarcinoma (MCF7) cell lines, and human normal fibroblasts (BJ) were used for the screening.
(§2) The tested compounds were dissolved in DMSO to afford 10 mM stock solutions. Human cervical carcinoma (HeLa) and human breast adenocarcinoma (MCF7) cell lines were purchased from European Collection of Authenticated Cell Cultures (ECACC, Salisbury, UK) and cultivated in Dulbecco’s Modified Eagle Medium (DMEM) (Merck, Darmstadt, Germany), as previously reported [27]. […] All cells were maintained in a humidified CO2 incubator at 37 °C using the standard trypsinization procedure twice or three times a week. […] All cells were maintained in a humidified CO2 incubator at 37 °C using the standard trypsinization procedure twice or three times a week.
(§3) In cytotoxicity assays, cancer cells were treated with six different concentrations of each tested compound for 72 h. Cells were stained with resazurin and IC50 values were calculated as previously reported [26]. Triplicates from at least three independent experiments were used.

in vitro = conditions: human
Method: as §1, §3

[2] = system: MCF7 (human breast adenocarcinoma cell line); assay: Cytotoxicity, resazurin assay, 72 h; conditions: MCF7, 72 h, read-out: Cytotoxicity (IC50) MCF7
Method: as §1, §2, §3

[3] = system: human umbilical vein endothelial cells (HUVEC); assay: Migration scratch assay; format: cell-based; conditions: 20 µM, 20 h of treatment
Method: Subsequently, we examined whether the isolated steroids could influence angiogenesis or inflammation in vitro. […] Only non-cytotoxic concentrations in HUVECs were used for the scratch assay.
The scratch test was performed with HUVEC cells and evaluated after 20 h of treatment, as previously reported.

[4] = system: BJ (human normal fibroblasts)
Method: as §1, §3

androgen receptor (AR) = assay: AR-transcriptional reporter assay (luciferase) in 22Rv1-ARE14 cells; conditions: 24 h; for Luciferase activity (AR-mediated transcription), in words: six concentrations, already at submicromolar concentrations
Method: Therefore, we further analyzed the influence of the isolated steroids on AR-mediated transcription. […] Control cells were grown in charcoal-stripped serum medium (CSS). Cells were stimulated with either 1 nM methyltrienolone R1881 (R) or with the tested compounds in six different concentrations for 24 h in CSS. The luciferase activity was measured in the cell lysate. […] The experiment was repeated three times in triplicates.
AR-transcriptional reporter assays were performed on 22Rv1-ARE14 cells after 24 h of incubation, as previously described [22].

[5] = system: neuron-like SH-SY5Y cells; assay: Cell death in 3-NPA model, propidium iodide (PI) assay; format: cell-based, human; conditions: maximal effect at 10 µM, with 20 mM 3-NPA, 48 h
Method: In order to evaluate the potential neuroprotective effect of the compounds, neuroblastoma cell line SH-SY5Y was differentiated for 48 h and further exposed to 20 mM 3-nitropropionic acid (3-NPA) as an agent mimicking Huntington’s disease in vitro [25]. 3-NPA was used alone or in co-treatment with the tested compounds at concentrations of 0.1–10 µM. […] In general, PI as a positively charged dye is associated with an increase of cell damage or death, since it penetrates cells with cell-disrupted membranes. Within the 3-NPA model, its toxic effect was considered as 100% of the PI signal and thus reduction of cell death was determined.
N-acetylcysteine (NAC) was used as a positive control. * p compared with vehicle with 20 mM 3-NPA, # p compared with vehicle without 20 mM 3-NPA.
Cell death of SH-SY5Y cells (20,000 cells/well) was determined using the propidium iodide (PI) assay according to Stone et al. with a slight modification. […] The resulting fluorescence of 3-NPA toxin was considered as 100% cell death. In the assays, neuron-like cells were treated with the tested compounds in 0.1–10 µM concentration range for 48 h. DMSO-treated cells (≤0.1% v/v) were used as healthy controls.

[6] = Cytotoxicity, resazurin assay, 72 h; conditions: human, BJ cells (human normal fibroblasts)
Method: as §1, §3

[7] = Stability of the isolated metabolite during structure elucidation; format: physicochemical; conditions: degraded prior to the acquisition of heteronuclear NMR spectra
Description: Compound 2 shared quite similar spectroscopic features with 1. In particular, all signals attributed to the steroidal nucleus, with the most prominent being the signals of the two angular methyls H3-18 and H3-19 (δH 1.09 and 0.94, respectively), the methyl at C-4 (δH 1.04), the oxymethine H-3 (δH 3.10), and the two olefinic protons H-9 and H-11 (δH 5.27 and 5.41, respectively), were also evident in the ^1H NMR spectrum of compound 2 (Table 1). The most significant difference observed was the replacement of the 1,2-disubstituted double bond in the side chain of 1 by a 1,1-disustituted double bond (δH 4.63 and 4.70) in the side chain of 2. The correlations observed in the COSY spectrum of 2 identified the relevant spin systems; however, metabolite 2 was proven unstable and degraded prior to the acquisition of heteronuclear NMR spectra. Nevertheless, the high structural similarity of 2 with compound 1 renders safe the proposed identification of 2 as (9E)-3β-hydroxy-4α,24-dimethyl-8,9-seco-5α-cholesta-9(11),24(28)-dien-8-one.

C=C(CCC(C)C1CCC2C3CCC4C(C)C(O)CCC4(C)C3CCC12C)C(C)C (stereo not drawn) [Compound 3, 4α,24-dimethyl-5α-cholest-24(28)-en-3β-οl]
IC50 [1]: > 50 µM
IC50 at 72 h (in vitro): > 50 µM
IC50 [2]: > 50 µM

CC(C)[C@@H](C)/C=C/[C@@H](C)[C@H]1CC[C@H]2C3=C[C@@H](O)[C@@]4(O)C[C@@H](O)CC[C@]4(C)[C@H]3CC[C@]12C [Compound 26, (22E,24R)-24-methyl-cholesta-7,22-dien-3β,5α,6β-triol]
IC50 [1]: > 50 µM
IC50 at 72 h (in vitro): > 50 µM
IC50 [2]: > 50 µM

C=C(C(=O)CC(C)C1CCC2C1(C)CC(O)C1C3(C)CCC(O)C(C)C3CCC21O)C(C)C (stereo not drawn) [Compound 11, 23-oxo-4α,24-dimethyl-5α-cholest-24(28)-en-3β,8β,11β-triol]
Inhibition of HUVEC migration [3]: partially inhibited
IC50 [1]: 18.8 ± 6.4 µM
Cytotoxicity toward normal cells (BJ), in words [4]: absence of cytotoxicity
Rank of AR inhibition (androgen receptor (AR); 10 µM): strongest inhibition of AR
Luciferase activity (AR-mediated transcription), in words (androgen receptor (AR)): clearly reduced luciferase activity in a dose-dependent manner
Effect on cell death (PI assay), in words [5]: significantly reduced cell death
IC50 at 72 h (in vitro): > 50 µM
IC50 [2]: 21.7 ± 1.4 µM

CC(C)C(C)/C=C\[C@@H](C)[C@H]1CC[C@H]2[C@]3(O)CC[C@H]4[C@H](C)[C@@H](O)CC[C@]4(C)[C@H]3[C@@H](O)[C@H](O)[C@]12C (stereo partly drawn) [Compound 14, (22Z)-4α,24ξ-dimethyl-5α-cholest-22-en-3β,8β,11β,12α-tetraol]
IC50 [1]: > 50 µM
Cytotoxicity toward normal cells (BJ), in words [4]: absence of cytotoxicity
IC50 at 72 h (in vitro): > 50 µM
IC50 [2]: 29.1 ± 5 µM

CC(C)[C@@H](C)/C=C/[C@@H](C)[C@H]1CC[C@@H]2[C@]1(C)C[C@H](O)[C@@H]1[C@@]3(C)CC[C@H](O)[C@@H](C)[C@@H]3CC[C@@]21O [Compound 10, (22E,24R)-4α,24-dimethyl-5α-cholest-22-en-3β,8β,11β-triol]
IC50 [1]: 32.9 ± 6.8 µM
Concentration dependence of AR inhibition (androgen receptor (AR)): increased inhibition of AR
IC50 at 72 h (in vitro): 4.1 ± 1.9 µM
IC50 [2]: 32.7 ± 1.3 µM

C=C(CCC(C)C1CCC2C3C(=O)C=C4CC(O)CCC4(CO)C3CCC12C)C(C)C (stereo not drawn) [Compound 24, 7-oxo-24-methyl-cholesta-5,24(28)-dien-3β,19-diol]
IC50 [1]: 21.4 ± 2 µM
IC50 at 72 h (in vitro): 45.9 ± 2.8 µM
IC50 [2]: 31.7 ± 0.3 µM

CC(C)[C@@H](C)/C=C/[C@@H](C)[C@H]1CC[C@H]2[C@@H]3CC[C@H]4[C@H](C)[C@@H](O)CC[C@]4(C)[C@H]3CC[C@]12C [Compound 4, (22E,24R)-4α,24-dimethyl-5α-cholest-22-en-3β-ol]
IC50 [1]: > 50 µM
IC50 at 72 h (in vitro): > 50 µM
IC50 [2]: > 50 µM

CC(C)[C@@H](C)/C=C/[C@@H](C)[C@H]1CC[C@@H]2[C@]1(C)CC[C@@H]1[C@@]3(C)CC[C@H](O)[C@@H](C)[C@@H]3CC[C@@]21O [Compound 6, (22E,24R)-4α,24-dimethyl-5α-cholest-22-en-3β,8β-diol]
IC50 [1]: > 50 µM
IC50 at 72 h (in vitro): > 50 µM
IC50 [2]: > 50 µM

C=C(CCC(C)C1CCC2C3=CC(O)C4(O)CC(O)CCC4(C)C3CCC21C)C(C)C (stereo not drawn) [Compound 25, 24-methyl-cholesta-7,24(28)-dien-3β,5α,6β-triol]
IC50 [1]: > 50 µM
IC50 at 72 h (in vitro): > 50 µM
IC50 [2]: > 50 µM

C=C(CCC(C)C1CCC2C3CC=C4CC(O)CCC4(C)C3CCC12C)C(C)C (stereo not drawn) [Compound 17, 24-methyl-cholesta-5,24(28)-dien-3β-οl]
IC50 at 72 h [6]: > 50 µM
IC50 [1]: > 50 µM
IC50 [2]: > 50 µM

C=C(C=CC(C)C1CCC2C3CC=C4CC(O)CCC4(CO)C3CCC12C)C(C)C (stereo not drawn) [Compound 20, (22E)-24-methyl-cholesta-5,22,24(28)-trien-3β,19-diol]
IC50 [1]: > 50 µM
Concentration dependence of AR inhibition (androgen receptor (AR)): increased inhibition of AR
Luciferase activity (AR-mediated transcription), in words (androgen receptor (AR)): clearly reduced luciferase activity in a dose-dependent manner
IC50 at 72 h (in vitro): > 50 µM
IC50 [2]: > 50 µM

C=C(CCC(C)C1CCC2C3C(O)C=C4CC(O)CCC4(C)C3CCC12C)C(C)C (stereo not drawn) [Compound 18, 24-methyl-cholesta-5,24(28)-dien-3β,7β-diol]
IC50 [1]: 22.6 ± 0.4 µM
Cytotoxicity toward normal cells (BJ), in words [4]: absence of cytotoxicity
IC50 at 72 h (in vitro): > 50 µM
IC50 [2]: 28.6 ± 5.3 µM

C=C(C(=O)CC(C)C1CCC2C1(C)CCC1C3(C)CCC(O)C(C)C3CCC21O)C(C)C (stereo not drawn) [Compound 7, 23-oxo-4α,24-dimethyl-5α-cholest-24(28)-en-3β,8β-diol]
IC50 [1]: > 50 µM
IC50 at 72 h (in vitro): > 50 µM
IC50 [2]: > 50 µM

C=C(CC[C@@H](C)[C@H]1CC[C@H]2C(=O)CC[C@H]3[C@H](C)[C@@H](O)CC[C@]3(C)/C=C/C[C@]12C)C(C)C [Compound 2, (9E)-3β-hydroxy-4α,24-dimethyl-8,9-seco-5α-cholesta-9(11),24(28)-dien-8-one]
Stability [7]: unstable

CC(C)[C@@H](C)/C=C/[C@@H](C)[C@H]1CC[C@H]2[C@]3(O)CC[C@H]4[C@H](C)[C@@H](O)CC[C@]4(C)[C@H]3CC[C@]12CO [Compound 16, (22E,24R)-4α,24-dimethyl-5α-cholest-22-en-3β,8β,18-triol]
IC50 [1]: 32.9 ± 5.2 µM
Concentration dependence of AR inhibition (androgen receptor (AR)): increased inhibition of AR
Luciferase activity (AR-mediated transcription), in words (androgen receptor (AR)): clearly reduced luciferase activity in a dose-dependent manner
IC50 at 72 h (in vitro): 23.2 ± 1.4 µM
IC50 [2]: 33.8 ± 1 µM

C=C(CCC(C)C1CCC2C3(O)CCC4C(C)C(O)CCC4(C)C3CCC12CO)C(C)C (stereo not drawn) [Compound 15, 4α,24-dimethyl-5α-cholest-24(28)-en-3β,8β,18-triol]
IC50 [1]: 19 ± 4.3 µM
Cytotoxicity toward normal cells (BJ), in words [4]: absence of cytotoxicity
IC50 at 72 h (in vitro): > 50 µM
IC50 [2]: 18.9 ± 0.1 µM

C[C@]12CC[C@H](O)CC1=CC[C@@H]1[C@@H]2CC[C@]2(C)C(n3cnc4ccccc43)=CC[C@@H]12 [Galeterone, reference compound]
Inhibition of AR-regulated transcription (androgen receptor (AR); 10 µM, 22Rv1-ARE14): 22%

C=C(CCC(C)C1CCC2C1(C)CC(O)C1C3(C)CCC(O)C(C)C3CCC21O)C(C)C (stereo not drawn) [Compound 9, 4α,24-dimethyl-5α-cholest-24(28)-en-3β,8β,11β-triol]
IC50 [1]: 25.9 ± 4.9 µM
IC50 at 72 h (in vitro): 18.3 ± 4 µM
IC50 [2]: 36.4 ± 5.7 µM

C=C(C(C)C)C(CC(C)C1CCC2C1(C)CC(O)C1C3(C)CCC(O)C(C)C3CCC21O)OC(C)=O (stereo not drawn) [Compound 12, 23ξ-acetoxy-4α,24-dimethyl-5α-cholest-24(28)-en-3β,8β,11β-triol]
Inhibition of HUVEC migration [3]: partially inhibited
IC50 [1]: 15.7 ± 2 µM
Cytotoxicity toward normal cells (BJ), in words [4]: absence of cytotoxicity
Luciferase activity (AR-mediated transcription), in words (androgen receptor (AR)): clearly reduced luciferase activity in a dose-dependent manner
IC50 at 72 h (in vitro): > 50 µM
IC50 [2]: 25.3 ± 6.5 µM

C=C(CCC(C)C1CCC2C3CC=C4CC(O)CCC4(CO)C3CCC12C)C(C)C (stereo not drawn) [Compound 19, 24-methyl-cholesta-5,24(28)-dien-3β,19-diol]
IC50 [1]: > 50 µM
IC50 at 72 h (in vitro): > 50 µM
IC50 [2]: > 50 µM

C=C(CCC(C)C1CCC2C3C(OC(C)=O)C=C4CC(O)CCC4(CO)C3CCC12C)C(C)C (stereo not drawn) [Compound 22, 7β-acetoxy-24-methyl-cholesta-5,24(28)-dien-3β,19-diol]
IC50 at 72 h [6]: 14.8 ± 5.8 µM
Inhibition of HUVEC migration [3]: partially inhibited
IC50 [1]: 7.5 ± 0.1 µM
IC50 [2]: 8.9 µM

C=C(CCC(C)C1CCC2C1(C)CCC1C3(C)CCC(O)C(C)C3CCC21O)C(C)C (stereo not drawn) [Compound 5, 4α,24-dimethyl-5α-cholest-24(28)-en-3β,8β-diol]
IC50 [1]: > 50 µM
IC50 at 72 h (in vitro): > 50 µM
IC50 [2]: > 50 µM

CC(=O)O[C@H]1C=C2C[C@@H](O)CC[C@]2(CO)[C@H]2CC[C@]3(C)[C@@H]([C@H](C)CCCC(C)C)CC[C@H]3[C@H]12 [Compound 23, 7β-acetoxy-cholest-5-en-3β,19-diol]
Inhibition of HUVEC migration [3]: partially inhibited
IC50 [1]: 12 ± 1.7 µM
Effect on cell death (PI assay), in words [5]: significantly reduced cell death
IC50 at 72 h (in vitro): 14.5 ± 3.9 µM
IC50 [2]: 11.2 ± 0.5 µM
